# Values of other authors in US20080317862A1, “Organic Compounds Comprising a Glycopyrrolium Salt” (priority 2005, published 2008).
# Conditions: aerosol formulation for treating asthma, single administration of a metered dose
smiles,measurement,value
"C[N+]1(C)CCC(OC(=O)C(O)(c2ccccc2)C2CCCC2)C1.[Br-] (racemic) [glycopyrrolate, 3-[(cyclopentyl-hydroxyphenylacetyl)oxy]-1,1-dimethylpyrrolidinium bromide]",duration of bronchodilation,up to 12 hours
